Results taken from ChEMBL document CHEMBL3217756, “Biological and computational evaluation of an oxadiazole derivative (MD77) as a new lead for direct STAT3 inhibitors” (Medchemcomm, 2012).

Tests used:
[1] = molecular target: T1, Signal transducer and activator of transcription 3 (Homo sapiens, UniProt P40763); test: Inhibition of SH2 domain of STAT3 (unknown origin) using (FITC)-GpYLPQTV as substrate at 30 uM preincubated for 15 mins before substrate addition measured after 90 mins by alphascreen based assay
T1 sequence (P40763 whole entry, the tested form may be a part): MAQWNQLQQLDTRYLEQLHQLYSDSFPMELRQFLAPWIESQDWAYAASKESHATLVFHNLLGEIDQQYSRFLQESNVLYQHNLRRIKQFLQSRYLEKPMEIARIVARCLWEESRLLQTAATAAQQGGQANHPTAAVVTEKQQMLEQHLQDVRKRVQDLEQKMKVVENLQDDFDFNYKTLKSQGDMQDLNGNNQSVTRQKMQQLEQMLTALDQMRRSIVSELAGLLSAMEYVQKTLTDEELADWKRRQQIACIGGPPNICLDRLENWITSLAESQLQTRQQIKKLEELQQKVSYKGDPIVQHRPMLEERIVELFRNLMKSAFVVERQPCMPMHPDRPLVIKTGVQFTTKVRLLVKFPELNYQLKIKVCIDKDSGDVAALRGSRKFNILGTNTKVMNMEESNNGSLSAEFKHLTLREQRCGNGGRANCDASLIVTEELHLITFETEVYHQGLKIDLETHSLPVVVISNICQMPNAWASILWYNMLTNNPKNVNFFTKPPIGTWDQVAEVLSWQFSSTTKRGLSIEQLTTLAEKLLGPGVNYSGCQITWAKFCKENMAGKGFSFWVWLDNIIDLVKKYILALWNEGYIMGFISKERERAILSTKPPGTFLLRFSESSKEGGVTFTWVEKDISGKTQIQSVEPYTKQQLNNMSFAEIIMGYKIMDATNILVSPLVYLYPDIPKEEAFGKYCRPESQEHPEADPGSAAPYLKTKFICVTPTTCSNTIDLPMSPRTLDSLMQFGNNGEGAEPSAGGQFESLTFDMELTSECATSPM

[2] = molecular target: T1, Signal transducer and activator of transcription 3; test: Inhibition of SH2 domain of STAT3 (unknown origin) using (FITC)-GpYLPQTV as substrate preincubated for 15 mins before substrate addition measured after 90 mins by alphascreen based assay
[3] = molecular target: Growth factor receptor-bound protein 2 (Homo sapiens, UniProt P62993); test: Inhibition of SH2 domain of GRB2 (unknown origin) using FITC-PSpYVNVQN as substrate preincubated for 15 mins before substrate addition measured after 90 mins by alphascreen based assay
Growth factor receptor-bound protein 2, sequence (P62993 whole entry, the tested form may be a part): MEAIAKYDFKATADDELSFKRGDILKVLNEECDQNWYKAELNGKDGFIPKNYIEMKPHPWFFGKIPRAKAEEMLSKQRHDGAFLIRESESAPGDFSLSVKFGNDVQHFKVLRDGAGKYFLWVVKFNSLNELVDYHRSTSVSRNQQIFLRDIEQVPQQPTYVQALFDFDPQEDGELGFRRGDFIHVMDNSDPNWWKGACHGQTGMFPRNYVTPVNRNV

[4] = molecular target: T1, Signal transducer and activator of transcription 3; test: Inhibition of STAT3 in human HCT116 cells at 5 uM after 24 hrs by dual-light luciferase reporter gene assay; format: cell-based; settings: HCT-116
CCRF-CEM = test: Cytotoxicity against human CCRF-CEM cells after 48 hrs by sulforhodamine B assay; format: functional
RPMI-8226 = test: Cytotoxicity against human RPMI8226 cells after 48 hrs by sulforhodamine B assay; format: functional; settings: RPMI-8226, 48 h
A549 = test: Cytotoxicity against human A549 cells after 48 hrs by sulforhodamine B assay; format: functional; settings: A549, 48 h
[5] = Cytotoxicity against human EKVX cells after 48 hrs by sulforhodamine B assay; format: functional
NCI-H23 = test: Cytotoxicity against human NCI-H23 cells after 48 hrs by sulforhodamine B assay; format: functional; settings: NCI-H23, 48 h
NCI-H460 = test: Cytotoxicity against human NCI-H460 cells after 48 hrs by sulforhodamine B assay; format: functional; settings: NCI-H460, 48 h
HT-29 = test: Cytotoxicity against human HT-29 cells after 48 hrs by sulforhodamine B assay; format: functional; settings: HT-29, 48 h
SF-539 = test: Cytotoxicity against human SF539 cells after 48 hrs by sulforhodamine B assay; format: functional; settings: SF-539, 48 h
LOX IMVI = test: Cytotoxicity against human LOXIMVI cells after 48 hrs by sulforhodamine B assay; format: functional
SK-MEL-2 = test: Cytotoxicity against human SK-MEL-2 cells after 48 hrs by sulforhodamine B assay; format: functional; settings: SK-MEL-2, 48 h
[6] = Cytotoxicity against human UACC62 cells after 48 hrs by sulforhodamine B assay; format: functional; settings: UACC-62, 48 h
[7] = Cytotoxicity against human OVCAR5 cells after 48 hrs by sulforhodamine B assay; format: functional; settings: OVCAR-5, 48 h
ACHN = test: Cytotoxicity against human ACHN cells after 48 hrs by sulforhodamine B assay; format: functional
RXF 393 = test: Cytotoxicity against human RXF393 cells after 48 hrs by sulforhodamine B assay; format: functional; settings: RXF 393, 48 h
TK-10 = test: Cytotoxicity against human TK10 cells after 48 hrs by sulforhodamine B assay; format: functional; settings: TK-10, 48 h
[8] = Cytotoxicity against human UO31 cells after 48 hrs by sulforhodamine B assay; format: functional; settings: UO-31, 48 h
PC-3 = test: Cytotoxicity against human PC3 cells after 48 hrs by sulforhodamine B assay; format: functional; settings: PC-3, 48 h
DU-145 = test: Cytotoxicity against human DU145 cells after 48 hrs by sulforhodamine B assay; format: functional; settings: DU-145, 48 h
[9] = read-out: LC50 (the source's name)
[10] = read-out: pLC50 (the source's name) (converted)

Compound: O=C(Nc1nonc1-c1ccc(Cl)cc1)c1ccc(C(F)(F)F)cc1
- inhibition [1]: 72%
- IC50 [2]: 17.7 µM
- inhibition [2]: Dose-dependent effect
- IC50 [3]: > 100 µM
- inhibition [4]: 20%
- GI50 (CCRF-CEM; read-out: GI50): 0.842 µM
- CC50 (CCRF-CEM; [9]): > 100 µM
- TGI (CCRF-CEM; read-out: TGI): 10.7 µM
- GI50 (CCRF-CEM; read-out: pGI50 (converted)): 0.851 µM
- CC50 (CCRF-CEM; [10]): > 100 µM
- TGI (CCRF-CEM; read-out: pTGI (converted)): 10.7 µM
- GI50 (RPMI-8226; read-out: GI50): 1.05 µM
- CC50 (RPMI-8226; [9]): > 100 µM
- TGI (RPMI-8226; read-out: TGI): 5.89 µM
- GI50 (RPMI-8226; read-out: pGI50 (converted)): 1.05 µM
- CC50 (RPMI-8226; [10]): > 100 µM
- TGI (RPMI-8226; read-out: pTGI (converted)): 5.89 µM
- GI50 (A549; read-out: GI50): 2.53 µM
- CC50 (A549; [9]): > 100 µM
- TGI (A549; read-out: TGI): > 100 µM
- GI50 (A549; read-out: pGI50 (converted)): 2.51 µM
- CC50 (A549; [10]): > 100 µM
- TGI (A549; read-out: pTGI): > 100 µM
- GI50 ([5]; read-out: GI50): 3.4 µM
- CC50 [5, 9]: > 100 µM
- TGI ([5]; read-out: TGI): 33.6 µM
- GI50 ([5]; read-out: pGI50 (converted)): 3.39 µM
- CC50 [5, 10]: > 100 µM
- TGI ([5]; read-out: pTGI (converted)): 33.9 µM
- GI50 (NCI-H23; read-out: GI50): 1.89 µM
- CC50 (NCI-H23; [9]): > 100 µM
- TGI (NCI-H23; read-out: TGI): 7.94 µM
- GI50 (NCI-H23; read-out: pGI50 (converted)): 1.91 µM
- CC50 (NCI-H23; [10]): > 100 µM
- TGI (NCI-H23; read-out: pTGI (converted)): 7.94 µM
- GI50 (NCI-H460; read-out: GI50): 0.629 µM
- CC50 (NCI-H460; [9]): > 100 µM
- GI50 (NCI-H460; read-out: pGI50 (converted)): 0.631 µM
- CC50 (NCI-H460; [10]): > 100 µM
- GI50 (HT-29; read-out: GI50): 3.23 µM
- CC50 (HT-29; [9]): > 100 µM
- TGI (HT-29; read-out: TGI): > 100 µM
- GI50 (HT-29; read-out: pGI50 (converted)): 3.24 µM
- CC50 (HT-29; [10]): > 100 µM
- TGI (HT-29; read-out: pTGI): > 100 µM
- GI50 (SF-539; read-out: GI50): 3.68 µM
- CC50 (SF-539; [9]): > 100 µM
- TGI (SF-539; read-out: TGI): 17.1 µM
- GI50 (SF-539; read-out: pGI50 (converted)): 3.72 µM
- CC50 (SF-539; [10]): > 100 µM
- TGI (SF-539; read-out: pTGI (converted)): 17 µM
- GI50 (LOX IMVI; read-out: GI50): 0.872 µM
- LC50 (LOX IMVI; read-out: LC50): > 100 µM
- TGI (LOX IMVI; read-out: TGI): 57 µM
- GI50 (LOX IMVI; read-out: pGI50 (converted)): 0.871 µM
- LC50 (LOX IMVI; read-out: pLC50 (converted)): > 100 µM
- TGI (LOX IMVI; read-out: pTGI (converted)): 57.5 µM
- GI50 (SK-MEL-2; read-out: GI50): 2.1 µM
- LC50 (concentration killing 50% of cells) (SK-MEL-2; read-out: LC50): > 100 µM
- TGI (SK-MEL-2; read-out: TGI): 5.11 µM
- GI50 (SK-MEL-2; read-out: pGI50 (converted)): 2.09 µM
- LC50 (concentration killing 50% of cells) (SK-MEL-2; read-out: pLC50 (converted)): > 100 µM
- TGI (SK-MEL-2; read-out: pTGI (converted)): 5.13 µM
- GI50 ([6]; read-out: GI50): 2.11 µM
- CC50 [6, 9]: > 100 µM
- TGI ([6]; read-out: TGI): 6.83 µM
- GI50 ([6]; read-out: pGI50 (converted)): 2.09 µM
- CC50 [6, 10]: > 100 µM
- TGI ([6]; read-out: pTGI (converted)): 6.76 µM
- GI50 ([7]; read-out: GI50): 3.98 µM
- LC50 ([7]; read-out: LC50): > 100 µM
- TGI ([7]; read-out: TGI): 96.3 µM
- GI50 ([7]; read-out: pGI50 (converted)): 3.98 µM
- LC50 ([7]; read-out: pLC50 (converted)): > 100 µM
- TGI ([7]; read-out: pTGI (converted)): 95.5 µM
- GI50 (ACHN; read-out: GI50): 3.1 µM
- CC50 (ACHN; [9]): > 100 µM
- TGI (ACHN; read-out: TGI): 8.74 µM
- GI50 (ACHN; read-out: pGI50 (converted)): 3.09 µM
- CC50 (ACHN; [10]): > 100 µM
- TGI (ACHN; read-out: pTGI (converted)): 8.71 µM
- GI50 (RXF 393; read-out: GI50): 2.21 µM
- CC50 (RXF 393; [9]): > 100 µM
- TGI (RXF 393; read-out: TGI): 6.07 µM
- GI50 (RXF 393; read-out: pGI50 (converted)): 2.24 µM
- CC50 (RXF 393; [10]): > 100 µM
- TGI (RXF 393; read-out: pTGI (converted)): 6.03 µM
- GI50 (TK-10; read-out: GI50): 6.75 µM
- CC50 (TK-10; [9]): > 100 µM
- TGI (TK-10; read-out: TGI): > 100 µM
- GI50 (TK-10; read-out: pGI50 (converted)): 6.76 µM
- CC50 (TK-10; [10]): > 100 µM
- TGI (TK-10; read-out: pTGI): > 100 µM
- GI50 ([8]; read-out: GI50): 2.37 µM
- CC50 [8, 9]: > 100 µM
- TGI ([8]; read-out: TGI): > 100 µM
- GI50 ([8]; read-out: pGI50 (converted)): 2.34 µM
- CC50 [8, 10]: > 100 µM
- TGI ([8]; read-out: pTGI): > 100 µM
- GI50 (PC-3; read-out: GI50): 1.38 µM
- CC50 (PC-3; [9]): > 100 µM
- TGI (PC-3; read-out: TGI): 8.91 µM
- GI50 (PC-3; read-out: pGI50 (converted)): 1.38 µM
- CC50 (PC-3; [10]): > 100 µM
- TGI (PC-3; read-out: pTGI (converted)): 8.91 µM
- GI50 (DU-145; read-out: GI50): 3.48 µM
- CC50 (DU-145; [9]): > 100 µM
- TGI (DU-145; read-out: TGI): > 100 µM
- GI50 (DU-145; read-out: pGI50 (converted)): 3.47 µM
- CC50 (DU-145; [10]): > 100 µM
- TGI (DU-145; read-out: pTGI): > 100 µM
